According to the supplement of paper PMC11061612:

How the values were obtained:
Test in all cases: Bliss excess, mean over the matrix (fraction); higher = more synergy
[1] = test system: TOV-21G (Ovarian Carcinoma)
Procedure, shortened: (§1)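 Cell lines grown in DMEM/F12 or RPMI with 10% FBS were plated in 1536-well plates and held 24 hours at 37°C, 5% CO2 before 72 hours of exposure to two-drug dose matrices, with DMSO typically at 0.2%. CellTiter-Glo 2.0 luminescence gave viability, which was converted to inhibition. Vehicle wells were set to 0 and blank wells to 1. Combination Emax is the second-highest inhibition in the matrix, and Bliss excess is the observed combination effect minus the expected EA + EB − EA·EB, where EA and EB are the single-agent effects.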

[2] = test system: RS4-11 (B-Lymphoblastic Leukemia)
Procedure, shortened: as §1

[3] = test system: C2BBe1 (Colorectal Carcinoma)
Procedure, shortened: as §1

HT-144 (Melanoma) = test system: HT-144 (Melanoma)
Procedure, shortened: as §1

[4] = test system: SW1463 (Colorectal Carcinoma)
Procedure, shortened: as §1

[5] = test system: OVKATE (Ovarian Carcinoma)
Procedure, shortened: as §1

[6] = test system: NCI-H1975 (Lung Adenocarcinoma)
Procedure, shortened: as §1

[7] = test system: SCC90 (Head and Neck Carcinoma)
Procedure, shortened: as §1

[8] = test system: NCI-H1944 (Lung Adenocarcinoma)
Procedure, shortened: as §1

A375 (Melanoma) = test system: A375 (Melanoma)
Procedure, shortened: as §1

[9] = test system: HT-3 (Cervical Carcinoma)
Procedure, shortened: as §1

[10] = test system: RPMI-8402 (T-Lymphoblastic Leukemia)
Procedure, shortened: as §1

[11] = test system: JURL-MK1 (Chronic Myelogenous Leukemia)
Procedure, shortened: as §1

[12] = test system: HT-1197 (Bladder Carcinoma)
Procedure, shortened: as §1

[13] = test system: KNS-62 (Squamous Cell Lung Carcinoma)
Procedure, shortened: as §1

[14] = test system: BT-474 (Breast Carcinoma)
Procedure, shortened: as §1

[15] = test system: SBC-3 (Small Cell Lung Carcinoma)
Procedure, shortened: as §1

[16] = test system: BC-1 (B-Cell Non-Hodgkin's Lymphoma)
Procedure, shortened: as §1

[17] = test system: IGROV-1 (Ovarian Carcinoma)
Procedure, shortened: as §1

SK-MEL-24 (Melanoma) = test system: SK-MEL-24 (Melanoma)
Procedure, shortened: as §1

Compound `C[C@@H](c1ccc2nccn2c1)n1nnc2ncc(-c3cnn(C)c3)nc21` [Savolitinib] + CC1(C)CCC(CN2CCN(c3ccc(C(=O)NS(=O)(=O)c4ccc(NCC5CCOCC5)c([N+](=O)[O-])c4)c(Oc4cnc5[nH]ccc5c4)c3)CC2)=C(c2ccc(Cl)cc2)C1 [Venetoclax] (first compound max 1 µM, 7x7, partner max 1 µM) has a Bliss excess [1] of -0.0577, a Bliss excess [2] of -0.0566 and a Bliss excess [3] of -0.0759. For the same compound, the Bliss excess (HT-144 (Melanoma)) was -0.0569, the Bliss excess [4] was -0.0339 and the Bliss excess [5] was -0.0495. The Bliss excess [6] was -0.0329, the Bliss excess [7] was -0.0192 and the Bliss excess [8] was -0.0328. The Bliss excess (A375 (Melanoma)) was -0.0463, the Bliss excess [9] was -0.0486 and the Bliss excess [10] was -0.0218. For the same compound, the Bliss excess [11] was -0.0679, the Bliss excess [12] was -0.0534 and the Bliss excess [13] was -0.0616. The Bliss excess [14] was -0.0682, the Bliss excess [15] was -0.0435 and the Bliss excess [16] was 0.0031. The Bliss excess [17] was -0.04 and the Bliss excess (SK-MEL-24 (Melanoma)) was -0.0805.
For `Cc1cc2ncnn2cc1Nc1ncc2c(n1)n(C1CCOCC1)c(=O)n2C` [AZD7648] + C=CCn1c(=O)c2cnc(Nc3ccc(N4CCN(C)CC4)cc3)nc2n1-c1cccc(C(C)(C)O)n1 [AZD1775] (first compound max 10 µM, partner max 1 µM), the Bliss excess [1] was -0.0672, the Bliss excess [2] was 0.0667 and the Bliss excess [3] was -0.0115. The Bliss excess (HT-144 (Melanoma)) was 0.0458, the Bliss excess [4] was -0.0327 and the Bliss excess [5] was -0.001. The Bliss excess [6] was -0.0107, the Bliss excess [7] was 0.0276 and the Bliss excess [8] was -0.0005. The Bliss excess (A375 (Melanoma)) was 0.0217, the Bliss excess [9] was 0.0055 and the Bliss excess [10] was -0.0213. The Bliss excess [11] was -0.0773, the Bliss excess [12] was -0.0553 and the Bliss excess [13] was 0.0584. It also gave a Bliss excess [14] of 0.0103, a Bliss excess [15] of -0.0374 and a Bliss excess [16] of 0.004. It also gave a Bliss excess [17] of -0.0431 and a Bliss excess (SK-MEL-24 (Melanoma)) of -0.015.
